Assay results reported in patent US10335363B2, “Skin care composition and method of making the same” (The Procter & Gamble Company, priority 2015, dated 2019).

System: interleukin-18 (IL-18)
Test: Skin sensitization potential (IL-18 production in HEK)
Format: cell-based, human
Settings: fold change of IL-18 vs vehicle control, HEK lysates, 16 hours
Text: It is possible for a material to not be cytotoxic, and yet be unsafe due to provoking an allergic reaction upon skin contact. Typically, initial exposure to an allergen sensitizes the immune system, and following exposures cause an allergic response. Recent progress in understanding the mechanisms of skin sensitization identified interleukin-18 (IL-18) production in normal human epidermal keratinocytes (HEK) as a useful biomarker for skin contact sensitization (Corsini, et al., “Use of IL-18 Production In a Human Keratinocyte Cell Line to Discriminate Contact Sensitizers from Irritants and Low Molecular Weight Respiratory Allergens.” Toxicol In Vitro. 2009 August; 23(5):789-96; Teunis, et al., “Transfer of a Two-tiered Keratinocyte Assay: IL-18 Production by NCTC2544 to Determine the Skin Sensitizing Capacity and Epidermal Equivalent Assay to Determine Sensitizer Potency.” Toxicol In Vitro. 2013 April; 27(3):1135-50). […] Thus, IL-18 production in HEK was evaluated to determine sensitization potential.
Normal human adult epidermal keratinocytes (HEK) were cultured as described above for the cytoxicity evaluation. […] The cell lysates were collected, and IL-18 was quantified using Human IL-18 ELISA Kit (Catalog #7620, produced by MBL International Co., Woburn, Mass., USA). […] Fold changes of IL-18 levels between test articles and respective vehicle controls were calculated and compared to pPD. […]

Structure (SMILES): Nc1ccc(N)cc1 [benchmark sensitizer, para-phenylenediamine]
- IL18 Maximum fold: 7.8 fold)
